Some test systems named below: CCRF-CEM; Malme-3M; HCT-116; A549; MDA-MB-435; OVCAR-8; EKVX; K562; LOX IMVI; SNB-19; OVCAR-4; SF-539; NCI-H226; UACC-257; 786-0; SK-OV-3; DU-145; NCI/ADR-RES; PC-3; HCC 2998.
What all share (assay): growth of human tumour cells (NCI), 48 h

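How tested: cells in 96-well plates exposed to compound for 48 hours at five concentrations. GI50 is the concentration that inhibits growth by half.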 Active and inactive are the calls of the source. Rule as the data show it: active = GI50 up to about 1.1 µM and inactive = higher.

As to `CN(C)Cc1c[nH]c2ncnc(O)c12`, the GI50 with CCRF-CEM is 19.2 µM (inactive); in the experiment with Malme-3M it was 77.1 µM (inactive); with HCT-116, 22.4 µM (inactive); with A549, 86.5 µM (inactive); in the experiment on MDA-MB-435, 31.8 µM (inactive); with OVCAR-8 it was 29 µM (inactive). The GI50 is 98.2 µM (inactive) in the experiment on EKVX; 20.7 µM (inactive) in the experiment on K562; 19 µM (inactive) in the experiment on LOX IMVI; 70.1 µM (inactive) in the experiment on SNB-19; 32.8 µM (inactive) with OVCAR-4; 22.4 µM (inactive) with SF-539. Besides, the GI50 in the experiment on NCI-H226 is > 100 µM (inactive); in the experiment on UACC-257 it was 23 µM (inactive); in the experiment with 786-0, 23.2 µM (inactive); in the experiment on SK-OV-3, > 100 µM (inactive); in the experiment on DU-145, 26.4 µM (inactive); in the experiment on NCI/ADR-RES it was 62.7 µM (inactive). In addition, the GI50 with PC-3 is 56.2 µM (inactive).
Take `NC(CSC1c2ccccc2-c2ccccc21)C(=O)O` (configuration not stated): the GI50 with CCRF-CEM, in the experiment on Malme-3M, with HCT-116, in the experiment with A549, in the experiment with MDA-MB-435 and with OVCAR-8 was > 100 µM (inactive) each time. In addition, the GI50 in the experiment with EKVX, in the experiment with K562, in the experiment with LOX IMVI, in the experiment on SNB-19, with OVCAR-4 and in the experiment on SF-539 was > 100 µM (inactive) in each case. Besides, the GI50 in the experiment on NCI-H226, with UACC-257, with 786-0, in the experiment on SK-OV-3, in the experiment with DU-145 and in the experiment with NCI/ADR-RES was > 100 µM (inactive) each time. In addition, in the experiment with PC-3, the GI50 was > 100 µM (inactive).
Regarding `CCN(CC)/N=C\c1c2ccccc2cc2ccccc12`, the GI50 with CCRF-CEM was 31.3 µM (inactive); in the experiment on Malme-3M it was 49.8 µM (inactive); in the experiment on HCT-116, 31.8 µM (inactive); with A549 it was 41.6 µM (inactive); with MDA-MB-435 it was 34.7 µM (inactive); in the experiment with OVCAR-8 it was 61.8 µM (inactive). For the same molecule, the GI50 in the experiment with EKVX was 38.4 µM (inactive); in the experiment with K562, 44.9 µM (inactive); with SNB-19, > 100 µM (inactive); with OVCAR-4, 54.3 µM (inactive); in the experiment with SF-539, > 100 µM (inactive); in the experiment with UACC-257, 27.9 µM (inactive). The GI50 was 44.2 µM (inactive) in the experiment on 786-0; > 100 µM (inactive) in the experiment with SK-OV-3; 82 µM (inactive) in the experiment on DU-145; 79.4 µM (inactive) in the experiment with NCI/ADR-RES; 41.1 µM (inactive) in the experiment on PC-3.
Turning to `O=C1c2c(O)cccc2C(C(=O)CCCC(=O)C2c3cccc(O)c3C(=O)c3c(O)cccc32)c2cccc(O)c21`, the GI50 was 0.202 µM (active) in the experiment with CCRF-CEM; 0.789 µM (active) in the experiment on Malme-3M; 0.22 µM (active) in the experiment on HCT-116; 0.393 µM (active) in the experiment on A549; 0.746 µM (active) with MDA-MB-435; 0.278 µM (active) with HCC 2998. Moreover, the GI50 with OVCAR-8 is 0.492 µM (active); in the experiment on EKVX, 0.608 µM (active); in the experiment with K562, 0.11 µM (active); in the experiment with LOX IMVI it was 0.194 µM (active); in the experiment on SNB-19, 0.29 µM (active); in the experiment with OVCAR-4 it was 0.0867 µM (active). Also, the GI50 in the experiment with SF-539 is 0.179 µM (active); with NCI-H226, 0.456 µM (active); with UACC-257 it was 0.191 µM (active); in the experiment with 786-0, 2.73 µM (inactive); with SK-OV-3, 0.353 µM (active); in the experiment on DU-145, 0.519 µM (active). The GI50 with PC-3 is 0.0787 µM (active).
With `CC(C)=CCC/C(C)=C/CC/C(C)=C/CC/C(C)=C/CC/C(C)=C/CC/C(C)=C/CC/C(C)=C/CC/C(C)=C/CC/C(C)=C/CO` [SOLANESOL], the GI50 with CCRF-CEM, in the experiment on Malme-3M, with HCT-116, in the experiment with A549, in the experiment with MDA-MB-435 and in the experiment with HCC 2998 was > 100 µM (inactive) each time. In addition, the GI50 in the experiment on OVCAR-8, with EKVX, in the experiment with K562, in the experiment on LOX IMVI, in the experiment with SNB-19 and with OVCAR-4 was > 100 µM (inactive) each time. For the same molecule, the GI50 with SF-539, in the experiment with NCI-H226, with UACC-257, in the experiment on 786-0, with SK-OV-3 and with DU-145 was > 100 µM (inactive) in each case. In addition, the GI50 in the experiment with PC-3 was > 100 µM (inactive).
For `C1=N\c2ccc(cc2)/N=C\c2ccc(cc2)OCc2cccc(n2)COc2ccc/1cc2`, the GI50 in the experiment on CCRF-CEM, in the experiment with Malme-3M, with HCT-116, in the experiment with A549, in the experiment with MDA-MB-435 and with OVCAR-8 was > 100 µM (inactive) throughout. Also, the GI50 with EKVX, in the experiment with K562, in the experiment with SNB-19, with OVCAR-4, in the experiment with SF-539 and in the experiment on NCI-H226 was > 100 µM (inactive) throughout. Further, the GI50 in the experiment with UACC-257, with 786-0, in the experiment on SK-OV-3, in the experiment with DU-145, in the experiment with NCI/ADR-RES and in the experiment with PC-3 was > 100 µM (inactive) throughout.
`COP(=O)(Cc1ccc(/C=C/C#N)o1)OC`: the GI50 in the experiment on CCRF-CEM was > 100 µM (inactive); in the experiment with Malme-3M, 47.2 µM (inactive); in the experiment with HCT-116, > 100 µM (inactive); with A549, > 100 µM (inactive); in the experiment on MDA-MB-435, > 100 µM (inactive); in the experiment on OVCAR-8, > 100 µM (inactive). Also, the GI50 with EKVX, in the experiment with K562, in the experiment with SNB-19, in the experiment with OVCAR-4, in the experiment on SF-539 and in the experiment with NCI-H226 was > 100 µM (inactive) each time. For the same molecule, the GI50 in the experiment with 786-0, in the experiment on SK-OV-3, in the experiment on DU-145 and in the experiment on NCI/ADR-RES was > 100 µM (inactive) throughout.
Take `Clc1ccc2c(NCCNC3CCCCC3)ccnc2c1`: the GI50 in the experiment on CCRF-CEM is 2.81 µM (inactive); in the experiment on Malme-3M it was 1.87 µM (inactive); in the experiment with HCT-116, 5.96 µM (inactive); in the experiment on A549 it was 13.6 µM (inactive); in the experiment on MDA-MB-435 it was 3.04 µM (inactive); with OVCAR-8, 10.7 µM (inactive). Besides, the GI50 was 3.31 µM (inactive) in the experiment on EKVX; 2.12 µM (inactive) in the experiment with K562; 2.67 µM (inactive) in the experiment on LOX IMVI; 15.9 µM (inactive) in the experiment with SNB-19; 11.6 µM (inactive) with OVCAR-4; 10.6 µM (inactive) in the experiment on NCI-H226. The GI50 with 786-0 is 5.47 µM (inactive); with SK-OV-3 it was 13.9 µM (inactive); with DU-145, 16.1 µM (inactive); with NCI/ADR-RES it was 11.4 µM (inactive); with PC-3 it was 12.9 µM (inactive).
`CCN(CC)P(=O)(c1ccc2c(c1)OCCOCCOCCOCCO2)N(CC)CC`: the GI50 in the experiment with CCRF-CEM, with Malme-3M, in the experiment on HCT-116, in the experiment with A549, with MDA-MB-435 and with HCC 2998 was > 100 µM (inactive) each time. Also, the GI50 in the experiment on OVCAR-8, with EKVX, in the experiment with K562, in the experiment with LOX IMVI, in the experiment with SNB-19 and with SF-539 was > 100 µM (inactive) each time. In addition, the GI50 in the experiment with NCI-H226, in the experiment on 786-0, in the experiment on SK-OV-3, in the experiment with DU-145 and with PC-3 was > 100 µM (inactive) in each case.
Consider `CC1=C/C(=N\OCC(=O)O)CC(c2ccc(C(C)C)cc2)C1` (configuration not stated), for which the GI50 in the experiment with CCRF-CEM is 34.4 µM (inactive); in the experiment with Malme-3M, 63.8 µM (inactive); in the experiment on HCT-116, 45.6 µM (inactive); in the experiment with A549, 60.3 µM (inactive); in the experiment with MDA-MB-435, 36.8 µM (inactive); in the experiment with OVCAR-8 it was 27.9 µM (inactive). In addition, the GI50 was > 100 µM (inactive) in the experiment with EKVX; 32.3 µM (inactive) with K562; 93.1 µM (inactive) in the experiment on SF-539; 43 µM (inactive) in the experiment with UACC-257; 65.8 µM (inactive) in the experiment on 786-0; > 100 µM (inactive) with SK-OV-3. Further, the figures for the GI50 in the experiment on DU-145, in the experiment on NCI/ADR-RES and in the experiment with PC-3 were > 100 µM (inactive), 21.1 µM (inactive) and 38.5 µM (inactive), respectively.
As to `O=[As](O)(O)c1ccc(NCc2ccccc2)cc1`, the GI50 with Malme-3M, in the experiment on HCT-116, in the experiment on A549, with MDA-MB-435, with OVCAR-8 and in the experiment on EKVX was > 100 µM (inactive) in each case. In addition, the GI50 with K562, in the experiment with LOX IMVI, with SNB-19, with OVCAR-4, in the experiment with NCI-H226 and with UACC-257 was > 100 µM (inactive) throughout. For the same molecule, the GI50 in the experiment with 786-0, with DU-145, in the experiment on NCI/ADR-RES and with PC-3 was > 100 µM (inactive) throughout.
